#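 Results reflect a 48-hour exposure of cells in 96-well plates to compound at five concentrations. Definition used: TGI = concentration required for complete inhibition of growth.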
# Tests used:
# Assay in all cases: inhibition of tumour cell growth, NCI panel, 48 h
# [1] = system: HOP-92 NSCLC
# [2] = system: NCI-H226 lung
# [3] = system: HCT-15 colon
# [4] = system: K-562 leukemia
# [5] = system: RPMI-8226 leukemia
# [6] = system: DLD-1 colon
# [7] = system: LXFL 529 NSCLC
# [8] = system: SF-539 CNS
# [9] = system: HCC-2998 colon
# [10] = system: SK-MEL-28 melanoma
# [11] = system: SF-295 CNS
# [12] = system: HOP-18 NSCLC
# [13] = system: UACC-62 melanoma
# [14] = system: KM20L2 colon
# [15] = system: HOP-62 NSCLC
# [16] = system: MOLT-4 leukemia
# [17] = system: ACHN renal
# [18] = system: KM12 colon
# [19] = system: NCI-H460 lung
# [20] = system: SNB-19 CNS
# [21] = system: A549 NSCLC
# [22] = system: U251 CNS
# [23] = system: HL-60(TB) leukemia
# [24] = system: XF 498 CNS
# [25] = system: CAKI-1 renal
# [26] = system: HT29 colon
# [27] = system: SW-620 colon
# [28] = system: UACC-257 melanoma
# [29] = system: OVCAR-4 ovarian
# [30] = system: COLO 205 colon
# [31] = system: EKVX NSCLC
# [32] = system: OVCAR-3 ovarian
# [33] = system: SF-268 CNS
# [34] = system: RXF 393 renal
# [35] = system: SNB-75 CNS
# [36] = system: SR leukemia
# [37] = system: NCI-H522 lung
# [38] = system: UO-31 renal
# [39] = system: HCT-116 colon
# [40] = system: NCI-H23 lung
# [41] = system: M14 melanoma
# [42] = system: TK-10 renal
# [43] = system: SK-MEL-2 melanoma
# [44] = system: DMS 114 small cell lung
# [45] = system: CCRF-CEM leukemia
# [46] = system: OVCAR-8 ovarian
# [47] = system: MALME-3M melanoma
# [48] = system: SN12C renal
# [49] = system: DMS 273 small cell lung
# [50] = system: 786-0 renal
# [51] = system: A498 renal
# [52] = system: M19-MEL melanoma
# [53] = system: SK-OV-3 ovarian
# [54] = system: IGROV1 ovarian
# [55] = system: SNB-78 CNS
# [56] = system: LOX IMVI melanoma
# [57] = system: SK-MEL-5 melanoma
# [58] = system: OVCAR-5 ovarian
structure (smiles),measurement,setting,value
O=C1c2ccccc2C(=O)c2[nH]c(Cc3ccccc3F)nc21,TGI,[1],> 100 µM
same,TGI,[2],> 100 µM
same,TGI,[3],> 100 µM
same,TGI,[4],> 100 µM
same,TGI,[5],> 100 µM
same,TGI,[6],82.5 µM
same,TGI,[7],> 100 µM
same,TGI,[8],91.1 µM
same,TGI,[9],> 100 µM
same,TGI,[10],> 100 µM
same,TGI,[11],> 100 µM
same,TGI,[12],> 100 µM
same,TGI,[13],> 100 µM
same,TGI,[14],> 100 µM
same,TGI,[15],> 100 µM
same,TGI,[16],> 100 µM
same,TGI,[17],> 100 µM
same,TGI,[18],> 100 µM
same,TGI,[19],> 100 µM
same,TGI,[20],> 100 µM
same,TGI,[21],> 100 µM
same,TGI,[22],> 100 µM
same,TGI,[23],> 100 µM
same,TGI,[24],> 100 µM
same,TGI,[25],> 100 µM
same,TGI,[26],> 100 µM
same,TGI,[27],> 100 µM
same,TGI,[28],> 100 µM
same,TGI,[29],> 100 µM
same,TGI,[30],> 100 µM
same,TGI,[31],> 100 µM
same,TGI,[32],39 µM
same,TGI,[33],> 100 µM
same,TGI,[34],75.5 µM
same,TGI,[35],> 100 µM
same,TGI,[36],> 100 µM
same,TGI,[37],70.9 µM
same,TGI,[38],> 100 µM
same,TGI,[39],> 100 µM
same,TGI,[40],> 100 µM
same,TGI,[41],> 100 µM
same,TGI,[42],88.3 µM
same,TGI,[43],> 100 µM
same,TGI,[44],> 100 µM
same,TGI,[45],> 100 µM
same,TGI,[46],> 100 µM
same,TGI,[47],> 100 µM
same,TGI,[48],> 100 µM
same,TGI,[49],> 100 µM
same,TGI,[50],> 100 µM
CCN(C(C)=N)c1ccccc1,TGI,[1],> 100 µM
same,TGI,[2],> 100 µM
same,TGI,[3],> 100 µM
same,TGI,[4],> 100 µM
same,TGI,[5],> 100 µM
same,TGI,[6],> 100 µM
same,TGI,[7],> 100 µM
same,TGI,[8],> 100 µM
same,TGI,[9],> 100 µM
same,TGI,[10],> 100 µM
same,TGI,[11],> 100 µM
same,TGI,[51],> 100 µM
same,TGI,[12],> 100 µM
same,TGI,[13],> 100 µM
same,TGI,[14],> 100 µM
same,TGI,[15],> 100 µM
same,TGI,[16],> 100 µM
same,TGI,[17],> 100 µM
same,TGI,[18],> 100 µM
same,TGI,[19],> 100 µM
same,TGI,[52],> 100 µM
same,TGI,[20],> 100 µM
same,TGI,[53],> 100 µM
same,TGI,[21],> 100 µM
same,TGI,[22],> 100 µM
same,TGI,[23],> 100 µM
same,TGI,[24],> 100 µM
same,TGI,[25],> 100 µM
same,TGI,[27],> 100 µM
same,TGI,[28],44.3 µM
same,TGI,[54],> 100 µM
same,TGI,[55],> 100 µM
same,TGI,[29],> 100 µM
same,TGI,[30],> 100 µM
same,TGI,[56],> 100 µM
same,TGI,[31],> 100 µM
same,TGI,[32],> 100 µM
same,TGI,[33],> 100 µM
same,TGI,[34],> 100 µM
same,TGI,[35],> 100 µM
same,TGI,[57],> 100 µM
same,TGI,[37],> 100 µM
same,TGI,[38],> 100 µM
same,TGI,[39],> 100 µM
same,TGI,[40],> 100 µM
same,TGI,[41],> 100 µM
same,TGI,[58],> 100 µM
same,TGI,[42],> 100 µM
same,TGI,[43],> 100 µM
same,TGI,[44],> 100 µM
same,TGI,[45],> 100 µM
same,TGI,[46],> 100 µM
same,TGI,[47],> 100 µM
same,TGI,[48],> 100 µM
same,TGI,[50],> 100 µM
C[N+](C)(C)CC1CCCC(C[N+](C)(C)C)C1=NO (stereo not drawn),TGI,[2],> 100 µM
same,TGI,[3],> 100 µM
same,TGI,[4],> 100 µM
same,TGI,[5],> 100 µM
same,TGI,[6],> 100 µM
same,TGI,[7],> 100 µM
same,TGI,[8],> 100 µM
same,TGI,[10],> 100 µM
same,TGI,[11],> 100 µM
same,TGI,[12],> 100 µM
same,TGI,[13],> 100 µM
same,TGI,[14],> 100 µM
same,TGI,[16],> 100 µM
same,TGI,[17],> 100 µM
same,TGI,[18],> 100 µM
same,TGI,[19],> 100 µM
same,TGI,[52],> 100 µM
same,TGI,[20],> 100 µM
same,TGI,[53],> 100 µM
same,TGI,[21],> 100 µM
same,TGI,[22],> 100 µM
same,TGI,[24],> 100 µM
same,TGI,[25],> 100 µM
same,TGI,[26],> 100 µM
same,TGI,[27],> 100 µM
same,TGI,[28],> 100 µM
same,TGI,[54],> 100 µM
same,TGI,[55],> 100 µM
same,TGI,[29],> 100 µM
same,TGI,[30],> 100 µM
same,TGI,[31],> 100 µM
same,TGI,[32],> 100 µM
same,TGI,[34],> 100 µM
same,TGI,[35],> 100 µM
same,TGI,[57],> 100 µM
same,TGI,[36],> 100 µM
same,TGI,[38],> 100 µM
same,TGI,[39],> 100 µM
same,TGI,[40],> 100 µM
same,TGI,[41],> 100 µM
same,TGI,[58],> 100 µM
same,TGI,[42],> 100 µM
same,TGI,[43],> 100 µM
same,TGI,[46],> 100 µM
same,TGI,[47],> 100 µM
same,TGI,[48],> 100 µM
same,TGI,[49],> 100 µM
same,TGI,[50],> 100 µM

# Source: PubChem BioAssay (NCI)
